SMILES strings stand for the structures.

The source of these data is patent US4151281A, “Medicinal preparation for the treatment of collagenoses of a rheumatoid nature” (priority 1977, dated 1979).

For series [1] the following is noted: cited from earlier work.
Series [2] can be described thus: acute toxicity, single dose by probe into the stomach, albino mice, 3 days observation (Litchfield and Wilcoxson). As to conditions: mouse, in vivo, po, albino mice 16-17 g, limits in parentheses. The procedure: The proposed preparation was tested for toxicity in the acute and chronic tests. The acute toxicity of the preparation was determined in tests in albino mice (weighing 16 to 17 g) by introducing (by means of a probe into the stomach) amounts equal to 1,000 to 5,000 mg/kg of the animals body weight. Each dose was tested in five animals. Observation was continued for three days.

A short description of series [3]: single administration by probe into the stomach to narcotized cats. The format is in vivo. Here is the method: After a 1,000 mg/kg dose, these symptoms are more pronounced.
Series [4] is described as follows: chronic toxicity test, daily doses for three months, white rats. The format is in vivo. As to conditions: for Index of anti-toxic function of the liver (quantity of isolated benzoic acid): P = 0.05. Here is the method: […] Each dose was investigated in 20 animals (10 males and 10 females). Twenty rats served as controls. Changes in weight were recorded, the general status and behavior were observed, the peripheral blood picture was examined (hemoglobin, erythrocytes, leukocytes, thrombocytes, the leukocytary formula). For determining the functional state of the liver, kidneys, the pancreas, some biochemical indices of the urine (albumin, sugar, bile pigments) and the blood (sugar, cholesterol, bilirubin, urea, alkaline phosphatase, chlorides) were examined, just as the antitoxic function of the liver.
After the end of the tests the animals were slaughtered by decapitation: part of them immediately after the administration of the preparation, part-ten days later.
The internal organs of the slaughtered animals were examined both macro- and microscopically.

The test system of a further series is normal fibroblasts. The series can be described thus: 48-hour study of effect on cell growth in a culture of normal fibroblasts from healthy donors. It counts as cell-based. Conditions: Fibroblast, 100-gamma per 1 ml of medium, read-out: reduction of the number of cells in the culture. The text has this: This fact explains to a certain degree the action mechanism of the preparation in cases of systemic scleroderma.

A further series relates to rheumatoid arthritis. The series can be described thus: clinical trial in patients with rheumatoid arthritis. It counts as in vivo. Here is the method: (§1) The method of treatment consists in oral administration of the proposed preparation in 0.1 to 0.2 g doses in tablet form […], or in the form of a 5% solution for injections with 5 ml doses once a day. The daily dose shall not be over 0.6 g per patient.
The main group (69 persons) consisted of patients with rheumatoid arthritis in the 2nd and 3rd degree of activity.

Series [5] has as its system systemic lupus erythematosus. Put plainly: clinical treatment of systemic lupus erythematosus. The format is in vivo, patients. Here is the method:
as §1
Eight patients were treated for systemic lupus erythematosus.

Series [6] deals with systemic scleroderma. Put plainly: clinical treatment of systemic scleroderma. The format is in vivo, patients. Here is the method: as §1
Five patients were treated for systemic scleroderma. […] One of these patients, following a 1.5 year course of treatment, resumed work after a three-year interval caused by the disease.

In a further series the test system is adrenal cortex. Put plainly: corticosteroid concentration in the blood of rheumatoid arthritis or systemic lupus erythematosus patients during clinical trials. The format is in vivo. Conditions: regularly given. The text has this: Accordingly, the observed increase of the concentration of corticosteroids in the blood of rheumatoid arthritis or systemic lupus erythematosus patients, regularly given the proposed preparation during clinical trials in the above mentioned doses, testifies to its stimulating effect on the andrenal cortex.

Series [7] can be described thus: side effects and action on lasting administration, compared with known remedies for collagenoses. It counts as in vivo.
Series [8] deals with systemic scleroderma. Conditions: known preparations; cited from earlier work.
Setting [9] is: most of the patients, continued treatment.

Take `CCN(CC)CCCC(C)Nc1ccnc2cc(Cl)ccc12` (stereo not shown) [Delagil]: the “complications of antimalarial preparations” value in series [1] (treatment of collagenoses of a rheumatoid nature) was “cause leukopenia, and also affect the acoustic and optic nerves, the liver, the myocardium”.

`Cc1[nH]c(=O)[nH]c(=O)c1S(=O)(=O)Nc1ccc(S(=O)(=O)c2ccc(NS(=O)(=O)c3c(C)[nH]c(=O)[nH]c3=O)cc2)cc1` [preparation, p,p-/2,4-dioxy-6-methyl pyrimidinyl-5-sulfonamino/diphenyl sulfone]: in series [2], the 50% lethal dose (LD50) at 72 h came to 2600 mg/kg. In series [3] (single 500 mg/kg), the symptoms result is “unrest is observed (motorial excitation, mewing, salivation and vomiting)”; the “time after administration at which unrest is observed” value lay in the range of 10 to 20 min. In addition, in series [3] (single 1,000 mg/kg), the “condition on the second day after administration” value is given as “returned to normal”; the symptoms result was “these symptoms are more pronounced. There is repeated vomiting and loss of appetite”. The visible changes result in series [3] (single 100 to 200 mg/kg) was “no visible changes”. Further, the “Index of anti-toxic function of the liver (quantity of isolated benzoic acid)” value in [4] (females, after 3 months of 100 mg/kg oral doses (controls 10.1±5.1)) was 10.9±2.2. The “Index of anti-toxic function of the liver (quantity of isolated benzoic acid)” value in [4] (males, after 3 months of 100 mg/kg oral doses (controls 6.68±0.33)) was determined as 6.5±1.14. Further, in series [4] (rat, in vivo), the “fattiness at post mortem examination” value is on record as “good fattiness”; the “macro- and microscopic examination of organs” value is reported as “no pathological changes”; the “weight of thyroid gland, testes, spleen and adrenal glands versus control group” value is recorded as “did not differ”. Moreover, the inhibition at 100 µg/mL in the series with normal fibroblasts is 30%. The “articular index after treatment, average” value with rheumatoid arthritis (61 patients, from 46-48 points) is 16-20 points. Further, the “gravest patients who became capable of taking care of themselves unaided” value in the series with rheumatoid arthritis (administration for 1.5 to 2 years, three bed-ridden for 3 to 5 years) is “Eight”. Further, the “first compression force after treatment, average” value with rheumatoid arthritis (all the patients, from 14.4±1.7 kgf) was 22.0±2.1 kgf. The “corticosteroid content in the blood” value in the series on rheumatoid arthritis (due to the increasing activity of the 11-oxicorticosteroids) is recorded as “increase”. In the series with rheumatoid arthritis (during the period of treatment), the “patients with articular index without change” value amounted to 8 patients and the “patients with reduced articular index” value is reported as 61 patients. Also, in the series on rheumatoid arthritis (from (++++), most of the patients, continued treatment), the “C-reactive protein after treatment” value was “(++) and even (+)”. The “patients in whom the pain syndrome disappeared” value with rheumatoid arthritis (majority of patients, on the 10th to 12th day) is given as 51. Moreover, in the series on rheumatoid arthritis (setting [9]), the ESR entry was “reduction” and the “reduction of the sialic acid content of the blood” value amounted to 0.05 optical density units. Also, the “time to beginning of improvement of therapeutic indices” value with rheumatoid arthritis (not later than, after the beginning of treatment) is 3 to 4 weeks. Also, the “patients in whom morning-time torpidity disappeared completely” value in the series with rheumatoid arthritis (of 69 patients) is given as 48 patients. Moreover, in the series on rheumatoid arthritis (of the eight gravest patients), the “patients managing on essentially reduced doses of corticosteroids” value is recorded as “six” and the “patients who do not need corticosteroids any more” value was “two”. Further, the “patients with only an abatement of the pain syndrome (arthralgia)” value in the series with rheumatoid arthritis (other patients) came out at 18 patients. For the same compound, in the series on rheumatoid arthritis (other patients, shortened from 103.3±14.4 min), the “period of morning-time torpidity after treatment” value was 41.4 ± 9.73 min. For the same compound, the “patients with abatement of morning-time torpidity and greater scope of joint movement” value in the series on rheumatoid arthritis (out of the 69 patients) is reported as 59 patients. Also, the leukocyte count entry with rheumatoid arthritis (patients with leukopenias or leukocytoses accompanying rheumatoid arthritis) is “tendency towards the normalization”. Besides, in the series with rheumatoid arthritis (rheumatoid arthritis), the “pain syndrome towards the end of the first week of treatment” value is “tangibly abated” and the “patients in whom improvement took much longer” value was 8 patients. In series [5] (of eight patients, intake for two years), the complete recovery result was “one”. Besides, the “effect in the other cases on complications due to corticosteroids and quinoline preparations” value in [5] (other cases of eight patients) was “substantially alleviate the complications”. In addition, the “reduction of skin induration, flexion contracture of the hand and sensation of skin tension” value in the series with systemic scleroderma [6] (five patients) is listed as “All of them manifested a reduction”. Also, the “patients who resumed work” value with systemic scleroderma [6] (of five patients, 1.5 year course, after a three-year interval) is recorded as “One”. Further, the “concentration of corticosteroids in the blood” value in the series on adrenal cortex is reported as “increase”. Moreover, the “function of the adrenal cortex” value in [7] (as testified by rising corticosteroids content of the blood) was “stimulates the function of the adrenal cortex”. In addition, in series [7] (even when used for many years), the “complications of indole derivatives (ulceration, mental disorders)” value is “does not cause such complications”. Moreover, in [7] (in vivo), the “dosage of prescribed corticosteroids” value is recorded as “to be reduced and, in individual cases, discontinuing them altogether”; the “general and water-and-salt metabolic disorders” value is “does not cause general and water-and-salt metabolic disorders”; the toxicity result is “low toxicity”. For the same compound, the “complications of antimalarials (leukopenia; acoustic and optic nerves, liver, myocardium)” value in [7] (lasting administration (1-2 years and more)) is recorded as “does not cause the above-mentioned complications”. The pre-existing metabolic disorders result in [7] (when present) was “tend to normalize”.

Turning to `CC(C)Cc1ccc(C(C)C(=O)O)cc1` (stereo not shown) [Brufen], in the series with systemic scleroderma [8], the “whether the above results are produced in systemic scleroderma” value is given as “not produced”.

In the case of `COc1ccc2c(c1)c(CC(=O)O)c(C)n2C(=O)c1ccc(Cl)cc1` [Indometacin], the “whether the above results are produced in systemic scleroderma” value in the series on systemic scleroderma [8] was “not produced”. The mental disorders result in series [1] (derivatives of indole) is recorded as “confused consciousness, somnolency”. For the same compound, the ulcerogenic effect result in [1] (derivatives of indole, ulceration of the stomach, esophagus, the intestine) was “possess an ulcerogenic effect”.
